Tested on: proMMP-9 production by human TNFα stimulated THP-1 cell
Assay: Action on proMMP-9 production by human TNFα stimulated THP-1 cell (ELISA of culture supernatant)
Type: cell-based
Details: THP-1 cells, human TNFα 10 ng/mL, 24 hr; IC50 from 3 concentrations (5, 50, 500 or 1, 10, 100 nmol/L); read-out: proMMP-9 suppression rate IC50
Method: Experimental Example 1: Action of Human TNFα Stimulated THP-1 Cell on proMMP-9 Production
THP-1 cell (human monocytic leukemia cell line) was adjusted to 1×10^7 cells/mL in a culture medium (10% fetal bovine serum/RPMI1640 medium), and dispensed to a 96 well multiplate. This was equilibrated under the conditions of 37° C./5% CO2, and a culture medium containing human TNFα (final concentration 10 ng/mL) and a test compound was dissolved therein. After incubation under the conditions of 37° C./5% CO2 for 24 hr, the culture medium was centrifuged and the culture supernatant was collected, which was subjected to the following measurement.
Quantification of proMMP-9 in Culture Supernatant
The proMMP-9 concentration of the collected culture supernatant was quantified using a commercially available measurement reagent (manufactured by GE Healthcare, MMP-9, Human, Biotrak ELISA System).
Calculation of proMMP-9 Suppression Rate
The proMMP-9 suppression rate of the test compound was calculated from the following formula: % suppression=100−((Test−Min)/(Max−Min)×100) wherein Max is proMMP-9 concentration of culture supernatant induced by stimulation with human TNFα, without addition of a test compound (added with solvent alone) Min is proMMP-9 concentration of culture supernatant without addition of a test compound (added with solvent alone) and without stimulation with human TNFα, and Test is proMMP-9 concentration of culture supernatant induced by stimulation with human TNFα when a test compound is added.
Furthermore, the concentration of the test compound necessary for suppressing proMMP-9 production by human TNFα stimulated THP-1 cell by 50% (IC50 value) was calculated from 3 points of proMMP-9 suppression rate at test compound concentrations of 5, 50 and 500 nmol/L or 1, 10 and 100 nmol/L.
MMP-9 is produced as a precursor proMMP-9 by the stimulated cells, extracellularly activated and expresses the physiological activity as MMP-9. That is, evaluation of the suppression of proMMP-9 produced by the cell means evaluation of the suppression of production of MMP-9. The same applies to MMP-2, and evaluation of the suppression of proMMP-2 produced by the cell means evaluation of the suppression of production of MMP-2.

Compared with `Cc1cnc(N2CCN(C(=O)c3ccc(C4(C(C)C)NC(=O)NC4=O)c(O)c3)CC2)c(C)c1` (stereo not shown) [Example 20, 5-{4-[4-(3,5-dimethylpyridin-2-yl)piperazine-1-carbonyl]-2-hydroxyphenyl}-5-isopropylimidazolidine-2,4-dione], `Cc1cnc(N2CCN(C(=O)c3ccc(C4(C(C)C)NC(=O)NC4=O)s3)CC2)c(C)c1` (stereo not shown) [Example 114, 5-{5-[4-(3,5-dimethylpyridin-2-yl)piperazine-1-carbonyl]thiophen-2-yl}-5-isopropylimidazolidine-2,4-dione] is 14-fold higher in IC50: 6 nM for the first, 82 nM for the second. The first is the more potent here.

Going from `CC[C@]1(c2ccc(C(=O)N3CCC(c4cnn(-c5ccc(C)cc5)c4)CC3)cc2)NC(=O)NC1=O` [Example 27, (R)-5-ethyl-5-{4-[4-(1-p-tolyl-1H-pyrazol-4-yl)piperidine-1-carbonyl]phenyl}imidazolidine-2,4-dione] to `CC[C@]1(c2ccc(C(=O)N3CCN(c4ncc(C)cc4C)CC3)cc2)NC(=O)NC1=O` [Example 124, (R)-5-{4-[4-(3,5-dimethylpyridin-2-yl)piperazine-1-carbonyl]phenyl}-5-ethylimidazolidine-2,4-dione], the IC50 falls from 16 nM to 1 nM (16-fold). The second is the more potent here.

First: COC(=O)[C@@H]1CN(c2ncc(C)cc2C)CCN1C(=O)c1ccc([C@@]2(C(C)C)NC(=O)NC2=O)cc1 [Example 64, (S)-4-(3,5-dimethylpyridin-2-yl)-1-[4-((R)-4-isopropyl-2,5-dioxoimidazolidin-4-yl)benzoyl]piperazine-2-carboxylic acid methyl ester]
Second: COCC1CN(C(=O)c2ccc([C@@]3(C(C)C)NC(=O)NC3=O)cc2)CCN1c1ncc(C)cc1C (stereo partly drawn) [Example 66, (R)-5-{4-[4-(3,5-dimethylpyridin-2-yl)-3-methoxymethylpiperazine-1-carbonyl]phenyl}-5-isopropylimidazolidine-2,4-dione]
The IC50 of the first is higher: 64 nM for the first, less than 5 nM for the second.

`Cc1cnc(N2CCN(C(=O)c3ccc([C@@]4(C(C)C)NC(=O)NC4=O)cc3)C3(CCC3)C2)c(C)c1` [Example 65, (R)-5-{4-[8-(3,5-dimethylpyridin-2-yl)-5,8-diazaspiro[3.5]nonane-5-carbonyl]phenyl}-5-isopropylimidazolidine-2,4-dione] and `Cc1cnc(N2CCN(C(=O)c3ccc(C4(CF)NC(=O)NC4=O)cc3)C(C)(C)C2)c(C)c1` (stereo not shown) [Example 69, 5-{4-[4-(3,5-dimethylpyridin-2-yl)-2,2-dimethylpiperazine-1-carbonyl]phenyl}-5-fluoromethylimidazolidine-2,4-dione] are within 1.5-fold of each other in IC50: 9 nM for the first, 11 nM for the second.

`Cc1cc(C)c(N2CCN(C(=O)c3ccc(C4(c5ccccc5)NC(=O)NC4=O)cc3)CC2)nc1C` (stereo not shown) [Example 108, 5-phenyl-5-{4-[4-(3,5,6-trimethylpyridin-2-yl)piperazine-1-carbonyl]phenyl}imidazolidine-2,4-dione] and `Cc1cc(C2(C)NC(=O)NC2=O)ccc1C(=O)N1CCN(c2nc(C)c(C)cc2C)CC1` (stereo not shown) [Example 126, 5-methyl-5-{3-methyl-4-[4-(3,5,6-trimethylpyridin-2-yl)piperazine-1-carbonyl]phenyl}imidazolidine-2,4-dione] are within 1.5-fold of each other in IC50: 11 nM for the first, 8 nM for the second.

`COC1(C2(c3ccc(C(=O)N4CCN(c5ncc(C)cc5C)CC4)cc3)NC(=O)NC2=O)CC1` (stereo not shown) [Example 112, 5-{4-[4-(3,5-dimethylpyridin-2-yl)piperazine-1-carbonyl]phenyl}-5-(1-methoxycyclopropyl) imidazolidine-2,4-dione] and `Cc1cnc(N2CCN(C(=O)c3ccc(C4(C(C)(C)C)NC(=O)NC4=O)cc3)CC2)c(C)n1` (stereo not shown) [Example 137, 5-tert-butyl-5-[4-(3′,5′-dimethyl-2,3,5,6-tetrahydro[1,2′]bipyrazinyl-4-carbonyl)phenyl]imidazolidine-2,4-dione] are within 1.5-fold of each other in IC50: 11 nM for the first, 14 nM for the second.

`Cc1nnc(N2CCN(C(=O)c3ccc([C@@]4(C(C)C)NC(=O)NC4=O)cc3)CC2)c(C)c1C` [Example 141, (R)-5-isopropyl-5-{4-[4-(4,5,6-trimethylpyridazin-3-yl)piperazine-1-carbonyl]phenyl}imidazolidine-2,4-dione] was tested, and the IC50 was 70 nM.
